In brackets after ≈: the same amount, converted by molar mass. Several values for one entry are separate records, joined by “and”; a condition that tells them apart may be missing. Identical values can stand only once. Entries after “also recorded” stand apart in the source; their conditions may differ. Like-named read-outs stand apart in the source and are kept apart here. Positions of bridges follow the written chain, without caps; N, C: chain ends. Residues, ends and D or L forms follow the SMILES beside them.
What was measured:
[1] = system: A549, HEPG2 and AGS cells
B. pseudomallei biofilm = conditions: cited from earlier work
[2] = system: B. pseudomallei strains used in the preliminary study; type: cell-based, Burkholderia pseudomallei
[3] = system: B. pseudomallei K96243 biofilm; type: cell-based, Burkholderia pseudomallei; set-up: Mean Diff., Untreated vs treated, Dunnett's Multiple Comparison Test (data for figure 2): unit not given here
[4] = system: B. pseudomallei strain K96243; type: cell-based, Burkholderia pseudomallei
E.coli ATCC 25922 = type: cell-based, Escherichia coli
[5] = system: human lung epithelial (A549) cells; conditions: cited from earlier work
[6] = system: human gastric adenocarcinoma (AGS) cells; conditions: cited from earlier work
[7] = system: Escherichia coli (ATCC 29522)
[8] = system: B. pseudomallei strain K96243 and clinical strains UMC031, UMC080, UMC089; conditions: for MIC, B. pseudomallei (average): 24 h
B. pseudomallei isolates = type: cell-based, Burkholderia pseudomallei
E. coli = type: cell-based, Escherichia coli
[9] = system: human hepatocellular carcinoma (HepG2) cells; conditions: cited from earlier work
[10] = system: human hepatocellular carcinoma (HepG2) cells
[11] = system: human gastric adenocarcinoma (AGS) cells
[12] = system: human lung epithelial (A549) cells
B. pseudomallei K96243 = type: cell-based, Burkholderia pseudomallei

Compound: CC(C)(O/N=C(\C(=O)N[C@@H]1C(=O)N2C(C(=O)[O-])=C(C[n+]3ccccc3)CS[C@H]12)c1csc(N)n1)C(=O)O [CAZ, ceftazidime]
- Mean Diff., 0 vs comparator, Dunnett's Multiple Comparison Test (MTT) [1]: 13.7
- concentration with anti-B. pseudomallei biofilm / biofilm inhibition activity (B. pseudomallei biofilm): 936 µM
- Antibiotic susceptibility by disk diffusion [2]: R and S
- Mean Diff., Untreated vs treated, Dunnett's Multiple Comparison Test (data for figure 2) [3]: 7.842
- reduction of surviving bacteria in biofilm state compared to the untreated (significance) [3]: significant reduction
- inhibition of bacteria in biofilm state compared to untreated ([3]; 24 h): complete inhibition
- time after exposure to growth inhibition / bactericidal endpoint [4]: 8 h
- Antibiotic susceptibility by disk diffusion (E.coli ATCC 25922): S

Compound: O=C(O)c1cn(C2CC2)c2cc(N3CCNCC3)c(F)cc2c1=O [CIP]
- Antibiotic susceptibility by disk diffusion (E.coli ATCC 25922): S

Compound: O=C(N[C@H](CO)[C@H](O)c1ccc([N+](=O)[O-])cc1)C(Cl)Cl [C]
- Antibiotic susceptibility by disk diffusion [2]: S and R
- Antibiotic susceptibility by disk diffusion (E.coli ATCC 25922): S

Compound: C[C@H]1c2cccc(O)c2C(O)=C2C(=O)[C@]3(O)C(O)=C(C(N)=O)C(=O)[C@@H](N(C)C)[C@@H]3[C@@H](O)[C@@H]21 [DXT]
- Antibiotic susceptibility by disk diffusion [2]: S
- Antibiotic susceptibility by disk diffusion (E.coli ATCC 25922): S

Compound: C[C@@H](O)[C@H]1C(=O)N2C(C(=O)O)=C(SCCN=CN)C[C@H]12 [IMI]
- Antibiotic susceptibility by disk diffusion [2]: S
- Antibiotic susceptibility by disk diffusion (E.coli ATCC 25922): S

Compound: CC[C@H](C)[C@H](NC(=O)[C@H](CCCCN)NC(=O)[C@H](CCC(=O)O)NC(=O)[C@H](CCCCN)NC(=O)[C@H](CO)NC(=O)[C@H](CCCCN)NC(=O)[C@H](CCCNC(=N)N)NC(=O)[C@H](Cc1ccccc1)NC(=O)[C@H](Cc1ccccc1)NC(=O)[C@H](CC(=O)O)NC(=O)CNC(=O)[C@H](CC(C)C)NC(=O)[C@@H](N)CC(C)C)C(=O)NCC(=O)N[C@@H](CCCCN)C(=O)N[C@@H](CCC(=O)O)C(=O)N[C@@H](Cc1ccccc1)C(=O)N[C@@H](CCCCN)C(=O)N[C@@H](CCCNC(=N)N)C(=O)N[C@H](C(=O)N[C@H](C(=O)N[C@@H](CCC(N)=O)C(=O)N[C@@H](CCCNC(=N)N)C(=O)N[C@H](C(=O)N[C@@H](CCCCN)C(=O)N[C@@H](CC(=O)O)C(=O)N[C@@H](Cc1ccccc1)C(=O)N[C@@H](CC(C)C)C(=O)N[C@@H](CCCNC(=N)N)C(=O)N[C@@H](CC(N)=O)C(=O)N[C@@H](CC(C)C)C(=O)N[C@H](C(=O)N1CCC[C@H]1C(=O)N[C@@H](CCCNC(=N)N)C(=O)N[C@H](C(=O)N[C@@H](CCC(=O)O)C(=O)N[C@@H](CO)C(=O)O)[C@@H](C)O)C(C)C)[C@@H](C)CC)C(C)C)[C@@H](C)CC [LL-37]
- cytotoxicity to A549 [5]: cytotoxic
- cytotoxicity to AGS [6]: cytotoxic
- MBC, E.coli (ATCC 29522) ([7]; ATCC 29522, 24 h): 14.8 ± 6.42 µM (≈ 66.5 µg/mL)
- MIC, E.coli (ATCC 29522) ([7]; ATCC 29522, 24 h): 14.8 ± 6.42 µM (≈ 66.5 µg/mL)

Compound: C[C@@H](O)[C@H]1C(=O)N2C(C(=O)O)=C(S[C@@H]3CN[C@H](C(=O)N(C)C)C3)[C@H](C)[C@H]12 [MRP, meropenem]
- Mean Diff., 0 vs comparator, Dunnett's Multiple Comparison Test (MTT) [1]: 11.53
- Antibiotic susceptibility by disk diffusion [2]: S
- Mean Diff., Untreated vs treated, Dunnett's Multiple Comparison Test (data for figure 2) [3]: 7.842
- reduction of surviving bacteria in biofilm state compared to the untreated (significance) [3]: significant reduction
- inhibition of bacteria in biofilm state compared to untreated ([3]; 24 h): complete inhibition
- Antibiotic susceptibility by disk diffusion (E.coli ATCC 25922): S

Compound: CC(C)C[C@H](NC(=O)[C@H](CCCNC(=N)N)NC(=O)CNC(=O)CNC(=O)[C@@H](N)CCCNC(=N)N)C(=O)N[C@H]1CSSC[C@@H](C(=O)N[C@H](C(=O)NCC(=O)N[C@@H](CCCNC(=N)N)C(N)=O)C(C)C)NC(=O)[C@H](C(C)C)NC(=O)[C@@H]2CSSC[C@H](NC(=O)[C@H](Cc3ccc(O)cc3)NC1=O)C(=O)N[C@@H](CCCNC(=N)N)C(=O)N[C@@H](CCCNC(=N)N)C(=O)N[C@@H](CCCNC(=N)N)C(=O)N[C@@H](Cc1ccccc1)C(=O)N2 [PG1, Protegrin 1]
- Mean Diff., 0 vs comparator, Dunnett's Multiple Comparison Test (MTT) [1]: 96.14
- MIC, B. pseudomallei (average) [8]: 15.46 ± 5.02 µM (≈ 33.3 µg/mL)
- B. pseudomallei isolates susceptible to the AMP (B. pseudomallei isolates): 100%
- Susceptibility of strain to AMP (S/R), preliminary study (E. coli): S
- MIC, E.coli (ATCC 29522) ([7]; 37 °C 24 h): 5.8 ± 1.09E-15 μM
- cytotoxicity against Hep G2 [9]: cytotoxic
- percentage of viable cells, HEPG2 ([10]; 2 h, 115 μM): 5.0%
- percentage of viable cells, AGS ([11]; 2 h, 115 μM): 3.0%
- Mean Diff., Untreated vs treated, Dunnett's Multiple Comparison Test (data for figure 2) [3]: 6.743
- reduction of surviving bacteria in biofilm state compared to the untreated (significance) [3]: significant reduction
- surviving bacteria in biofilm state 24 h post exposure [3]: 1.1 log CFU/biofilm
- percentage of viable cells, A549 ([12]; 2 h, 115 μM): 3.3%

Compound: CN(C)c1cc(NC(=O)CNC(C)(C)C)c(O)c2c1C[C@H]1C[C@H]3[C@H](N(C)C)C(O)=C(C(N)=O)C(=O)[C@@]3(O)C(O)=C1C2=O [TGC]
- Antibiotic susceptibility by disk diffusion [2]: R and S

Compound: CC[C@H](C)[C@@H]1NC(=O)CNC(=O)[C@H](CCCNC(=N)N)NC(=O)[C@H](Cc2ccc(O)cc2)NC(=O)[C@@H]2CSSC[C@H](NC1=O)C(=O)N[C@@H](Cc1ccc(O)cc1)C(=O)N[C@@H](CCCNC(=N)N)C(=O)N[C@@H](CCCNC(=N)N)C(=O)N[C@H](C(=O)N[C@@H](CCCNC(=N)N)C(N)=O)CSSC[C@H](NC(=O)[C@H](Cc1c[nH]c3ccccc13)NC(=O)[C@@H](N)CCCCN)C(=O)N[C@@H](Cc1ccccc1)C(=O)N[C@@H](CCCNC(=N)N)C(=O)N[C@@H](C(C)C)C(=O)N2 [TP1, Tachyplesin 1] (H-KWCFRVCYRGICYRRCR-NH2; disulfide 3-16, 7-12)
- MBC, B. pseudomallei (average) ([8]; 37 °C 24 h): 193.35 ± 2.00E-14 μM
- MIC, B. pseudomallei (average) [8]: 61.69 ± 6.38 µM (≈ 140 µg/mL)
- B. pseudomallei isolates susceptible to the AMP (B. pseudomallei isolates): 83%
- Susceptibility of strain to AMP (S/R), preliminary study (B. pseudomallei isolates): S and R
- Susceptibility of strain to AMP (S/R), preliminary study (E. coli): S
- MBC, E.coli (ATCC 29522) ([7]; ATCC 29522, 24 h): 22.1 ± 0 µM (≈ 50 µg/mL)
- MIC, E.coli (ATCC 29522) ([7]; ATCC 29522, 24 h): 22.1 ± 0 µM (≈ 50 µg/mL)
- MTT, mean over the lower concentrations [10]: 91.041
- MTT, mean over the lower concentrations [11]: 87.0414
- percentage of viable cells, AGS ([11]; 2 h, 2.7 μM): 85.1%
- percentage of viable cells, AGS ([11]; 2 h, 48.6 μM): 80%
- percentage of viable cells, AGS ([11]; 24 h, 22.3 μM): 90.0 ± 8.4%
- MBEC [3]: not achieved
- Mean Diff., 0 vs concentration (Bonferroni's test) [3]: 4.116 and 4.208
- Mean Diff., Untreated vs treated, Dunnett's Multiple Comparison Test (data for figure 2) [3]: 3.641
- concentration of maximum inhibition of cells in biofilm state [3]: 442 µM
- concentration reducing the number of B. pseudomallei in biofilm state [3]: above 55 μM
- inhibition activity of TP1 higher than LL-37 [3]: approximately 2.0 log
- inhibition activity of TP1 lower than PG1 [3]: 3.5 log
- log reduction of bacteria in biofilm state [3]: 1.0 log and 1.3 log
- reduction of surviving bacteria in biofilm state compared to the untreated (significance) [3]: significant reduction
- surviving bacteria in biofilm state [3]: ~4.00 log CFU/biofilm
- surviving bacteria in biofilm state 24 h post exposure [3]: 4.2 log CFU/biofilm
- surviving bacteria in biofilm state at the end of the TP1 concentration series ([3]; 24 h): 3.6 log CFU/biofilm
- MTT, mean over the lower concentrations [12]: 86.0736
- concentration inhibiting B. pseudomallei K96243 growth [4]: > 55 µM
- time after exposure to growth inhibition [4]: following eight hours of exposure
- viable bacteria at 24 h [4]: 9.96 log CFU/ml
- cell morphology by SEM (B. pseudomallei K96243): membrane blebbing; also recorded: corrugated with dimples on the surface

Compound: GFKLKGMARISCLPNGQWSNFPPKCIRECA [Sushi 1]
- Susceptibility of strain to AMP (S/R), preliminary study (B. pseudomallei isolates): R
- Susceptibility of strain to AMP (S/R), preliminary study (E. coli): S
- Mean Diff., Untreated vs treated, Dunnett's Multiple Comparison Test (data for figure 2) [3]: 0.04572

Compound: GIGKFLHSAKKFGKAFVGEIMNS [Magainin 2]
- Susceptibility of strain to AMP (S/R), preliminary study (B. pseudomallei isolates): R
- Susceptibility of strain to AMP (S/R), preliminary study (E. coli): S
- Mean Diff., Untreated vs treated, Dunnett's Multiple Comparison Test (data for figure 2) [3]: 0.2494

Compound: HAEHKVKIGVEQKYGQFPQGTEVTYTCSGNYFLM [Sushi 3]
- Susceptibility of strain to AMP (S/R), preliminary study (B. pseudomallei isolates): R
- Susceptibility of strain to AMP (S/R), preliminary study (E. coli): S
- Mean Diff., Untreated vs treated, Dunnett's Multiple Comparison Test (data for figure 2) [3]: 0.04165

Compound: Ornithine
- Susceptibility of strain to AMP (S/R), preliminary study (B. pseudomallei isolates): R
- Susceptibility of strain to AMP (S/R), preliminary study (E. coli): S

From paper PMC5088614 (PeerJ, 2016)
